From US20060246106A1, “Infection resistant medical implants” (priority 2005, published 2006)
≈ marks a conversion by molar mass, not a printed value. Where two headings read alike, the source gives them in different places.

Legend:
[1] = system: Escherichia coli; test: MIC/MBC, antibiotic dilutions in Mueller-Hinton Broth; format: cell-based; conditions: E. coli, antibiotic alone
Description: The term “MIC” refers to the lowest concentration of antibiotic that inhibits in vitro bacterial growth. The term “MBC” refers to the lowest concentration of antibiotic that totally kills 99.9% of the inoculum. The principle of the test is to add dilutions of an antibiotic to Mueller-Hinton Broth and a standard concentration of the inoculum. Tubes are incubated overnight and read visually for turbidity. The lowest concentration showing no visible growth is the MIC. To establish the MBC broth cultures showing no visible growth are sub-cultured onto appropriate agar and incubated to determine if the organism has been killed.

[2] = elution rate: rifampicin/tobramycin content remaining on the graft; format: in vivo; conditions: graft harvested from dog, one line per dog; for concentration at 7 days / concentration at 14 days / concentration at 21 days: dog, explanted graft, other: graft implanted end to end in the infrarenal aorta
Description: Two grafts were harvested after week 1, two grafts after week 2 and the final two grafts were harvested after week 3. Immediately after harvesting, the grafts were prepared for antibiotic analysis. […] The graft samples required the rifampicin to be extracted from the graft material. The extraction procedure was as follows. A volume of methanol equivalent to 3 times the dry weight of the graft was added. […] The supernatant was then injected directly into the HPLC. […] The graft samples required the tobramycin to be extracted from the graft material. The extraction procedure was as follows. […] The supernatant was then injected directly into the PFIA. The extraction was repeated on the same graft sample to ensure that all the tobramycin had been extracted.

[3] = dog, in vivo
Description: (§1) Serum samples were collected from the dogs at the same time as the samples for liver and kidney function tests.
(§2) The analytical method for graft samples and serum samples was identical. The method used a HPLC system with a Hypersil 5 ODS column with UV detection at a wavelength of 254 nm. The mobile phase used was a 70:30 0.2M phosphate buffer pH 6.0: acetonitrile. The limit of detection for this method is 0.1 mg/Kg graft or 0.1 mg/litre serum.
(§3) These samples were mixed 50:50 with methanol and left to stand for 1 minute. After this time the solution was centrifuged for 5 minutes at maximum speed in a Microcentaur centrifuge. The supernatant was then used for analysis.
(§4) The analytical method for serum samples and graft samples was identical. The technique used to measure the tobramycin was Polarisation FluoroImmuno Assay (PFIA) using an Abbott FLX instrument using the reverse dilution protocol with a sample volume of 5 μl. The limit of detection for this method is 0.4 mg/Kg graft or 0.4 mg/litre serum.
(§5) The serum samples were analysed directly using the Abbot FLX instrument.

[4] = in vivo; conditions: dog
Description: as §1, §2, §3, §4, §5

`CO[C@H]1/C=C/O[C@@]2(C)Oc3c(C)c(O)c4c(O)c(c(/C=N/N5CCN(C)CC5)c(O)c4c3C2=O)NC(=O)/C(C)=C\C=C\[C@H](C)[C@H](O)[C@@H](C)[C@@H](O)[C@@H](C)[C@H](OC(C)=O)[C@@H]1C` [Rifampicin, rifampicin] showed an MBC [1] of 32.5 µg/mL (≈ 39.5 µM), an MIC [1] of 16.2 µg/mL (≈ 19.7 µM) and a concentration at 7 days ([2]; Implant Duration 7 Days, read-out: Rifampicin Content, 1st Extraction) of 890 ng/g. It also gave a concentration at 7 days ([2]; Implant Duration 7 Days, read-out: Rifampicin Content, 2nd Extraction) of under 100 ng/g, a concentration at 7 days ([2]; Implant Duration 7 Days, read-out: Rifampicin Content, Total) of 890 ng/g and a concentration at 14 days ([2]; Implant Duration 14 Days, read-out: Rifampicin Content, 1st Extraction) of 730 ng/g. For the same compound, the concentration at 14 days ([2]; Implant Duration 14 Days, read-out: Rifampicin Content, 2nd Extraction) was under 100 ng/g, the concentration at 14 days ([2]; Implant Duration 14 Days, read-out: Rifampicin Content, Total) was 730 ng/g and the concentration at 21 days ([2]; Implant Duration 21 Days, read-out: Rifampicin Content, 1st Extraction) was 340 ng/g. For the same compound, the concentration at 21 days ([2]; Implant Duration 21 Days, read-out: Rifampicin Content, 2nd Extraction) was under 100 ng/g, the concentration at 21 days ([2]; Implant Duration 21 Days, read-out: Rifampicin Content, Total) was 340 ng/g and the “Rifampicin Content, 1st Extraction” value ([2]; Implant Duration 7 Days) was 0.94 mg/Kg graft. For the same compound, the “Rifampicin Content, 2nd Extraction” value ([2]; Implant Duration 7 Days) was under 0.1 mg/Kg graft, the “Rifampicin Content, Total” value ([2]; Implant Duration 7 Days) was 0.94 mg/Kg graft and the “Rifampicin Content, 1st Extraction” value ([2]; Implant Duration 14 Days) was 1.24 mg/Kg graft. For the same compound, the “Rifampicin Content, 2nd Extraction” value ([2]; Implant Duration 14 Days) was under 0.1 mg/Kg graft, the “Rifampicin Content, Total” value ([2]; Implant Duration 14 Days) was 1.24 mg/Kg graft and the “Rifampicin Content, 1st Extraction” value ([2]; Implant Duration 21 Days) was 0.52 mg/Kg graft. For the same compound, the “Rifampicin Content, 2nd Extraction” value ([2]; Implant Duration 21 Days) was under 0.1 mg/Kg graft, the “Rifampicin Content, Total” value ([2]; Implant Duration 21 Days) was 0.52 mg/Kg graft and the “quantity of rifampicin equated to an average human” value ([3]; 1 day) was 1.15 mg. For the same compound, the concentration at 1 day [4] was 230 ng/mL, the concentration at 3 day [4] was under 100 ng/mL and the concentration at 7 day [4] was under 100 ng/mL. It also gave a concentration at 14 day [4] of under 100 ng/mL and a concentration at 21 day [4] of under 100 ng/mL.

`NC[C@H]1O[C@H](O[C@H]2[C@H](O)[C@@H](O[C@H]3O[C@H](CO)[C@@H](O)[C@H](N)[C@H]3O)[C@H](N)C[C@@H]2N)[C@H](N)C[C@@H]1O` [Tobramycin, tobramycin] gave an MBC [1] of 6.25 µg/mL (≈ 13.4 µM), an MIC [1] of 3.12 µg/mL (≈ 6.67 µM) and a concentration at 7 days ([2]; Implant Duration 7 Days, read-out: Tobramycin Content, 1st Extraction) of 4800 ng/g. It also gave a concentration at 7 days ([2]; Implant Duration 7 Days, read-out: Tobramycin Content, 2nd Extraction) of under 400 ng/g, a concentration at 7 days ([2]; Implant Duration 7 Days, read-out: Tobramycin Content, Total) of 4800 ng/g and a concentration at 14 days ([2]; Implant Duration 14 Days, read-out: Tobramycin Content, 1st Extraction) of 510 ng/g. It also gave a concentration at 14 days ([2]; Implant Duration 14 Days, read-out: Tobramycin Content, 2nd Extraction) of under 400 ng/g, a concentration at 14 days ([2]; Implant Duration 14 Days, read-out: Tobramycin Content, Total) of 510 ng/g and a concentration at 21 days ([2]; Implant Duration 21 Days, read-out: Tobramycin Content, 1st Extraction) of under 400 ng/g. For the same compound, the concentration at 21 days ([2]; Implant Duration 21 Days, read-out: Tobramycin Content, 2nd Extraction) was under 400 ng/g, the concentration at 21 days ([2]; Implant Duration 21 Days, read-out: Tobramycin Content, Total) was under 400 ng/g and the “Tobramycin Content, 1st Extraction” value ([2]; Implant Duration 7 Days) was 3.96 mg/Kg graft. The “Tobramycin Content, 2nd Extraction” value ([2]; Implant Duration 7 Days) was under 0.4 mg/Kg graft, the “Tobramycin Content, Total” value ([2]; Implant Duration 7 Days) was 3.96 mg/Kg graft and the “Tobramycin Content, 1st Extraction” value ([2]; Implant Duration 14 Days) was under 0.4 mg/Kg graft. The “Tobramycin Content, 2nd Extraction” value ([2]; Implant Duration 14 Days) was under 0.4 mg/Kg graft, the “Tobramycin Content, Total” value ([2]; Implant Duration 14 Days) was under 0.4 mg/Kg graft and the “Tobramycin Content, 1st Extraction” value ([2]; Implant Duration 21 Days) was under 0.4 mg/Kg graft. For the same compound, the “Tobramycin Content, 2nd Extraction” value ([2]; Implant Duration 21 Days) was under 0.4 mg/Kg graft, the “Tobramycin Content, Total” value ([2]; Implant Duration 21 Days) was under 0.4 mg/Kg graft and the “tobramycin present in the serum of the test dogs” value [3] was “no detectable amount”. For the same compound, the “Tobramycin Content (serum)” value ([3]; 1 day) was under 0.4 mg/litre serum, the “Tobramycin Content (serum)” value ([3]; 3 day) was under 0.4 mg/litre serum and the “Tobramycin Content (serum)” value ([3]; 7 day) was under 0.4 mg/litre serum. For the same compound, the “Tobramycin Content (serum)” value ([3]; 14 day) was under 0.4 mg/litre serum, the “Tobramycin Content (serum)” value ([3]; 21 day) was under 0.4 mg/litre serum and the concentration at 1 day [4] was under 400 ng/mL. The concentration at 3 day [4] was under 400 ng/mL, the concentration at 7 day [4] was under 400 ng/mL and the concentration at 14 day [4] was under 400 ng/mL. It also gave a concentration at 21 day [4] of under 400 ng/mL.
